“Also recorded” adds a separate entry of the source.
How the values were obtained:
OTR = OTR expression in P19 cells (immunocytochemistry, Western blot, RT-PCR); format: cell-based, mouse; conditions: for OTR expression (protein and mRNA) after treatment: DMSO 0.5%, OT 10^−7 M or OTA 10^−7 M alone; for early OTR induction (RT-PCR): second day of differentiation protocol, preliminary results
Experimental: (§1) For immunocytofluorescence studies, cells were grown onto glass coverslips coated with 0.1% gelatin. They were then fixed by 20-min incubation in PBS containing 4% paraformaldehyde, rinsed in PBS and stored at 4° C. in this buffer until used. All subsequent steps of permeabilization, washing and incubation with antibodies were performed at room temperature. Fixed cells were permeabilized for 10 min in PBS containing 0.005% saponin, blocked for 60 min in PBS-BSA-saponin (PBS containing 1% bovine serum albumin and 0.005% saponin), incubated for 45 min with the primary antibody diluted 1/50 and for 45 min with a fluorescein-conjugated swine anti-goat IgG antibody (Biosource International, Camarillo, Calif.) diluted 1/1000. PBS-BSA-saponin was used for washing between incubations and antibodies were diluted in the same buffer but containing 1.5% normal swine serum (Jackson Immuno Research Laboratories Inc., West Grove, Pa.). Coverslips were mounted in PBS containing 50% glycerol, and immediately examined under the microscope. The primary antibodies were all from Santa Cruz Biotechnology, Inc. (Santa Cruz, Calif.) and produced in goat: antibody C-20 against OT receptor (OTR), antibody K-16 against sarcomeric myosin heavy chain (MHC), and antibody N-19 against dihydropyridine receptor-alphal (DHPR-alphal).
Total cellular RNA was extracted with TRIzol® Reagent (Invitrogen Life Technologies, Burlington, Ontario, Canada), and poly(A)^+mRNA was affinity purified from 200 μg of total RNA onto Oligotex® mRNA columns (Qiagen, Mississauga, Ontario, Canada), as per the manufacturers' instructions. First-strand cDNA was synthesized in a final volume of 40 μl containing first-strand buffer, 3 μg of cellular RNA, 4 μl of hexanucleotide primers (Amersham-Pharmacia, Baie d'Urfé, Quebec, Canada), and avian myeloblastosis virus reverse transcriptase (12 units/μg RNA; Invitrogen). First-strand cDNA (5 μl) was then used for PCR amplification with OTR, ANP or GAPDH exon-specific oligonucleotide primers in a Robocycler Gradient 40 thermocycler (Stratagene, La Jolla, Calif.). Sequences of mouse OTR and ANP genes have been described (26, 34). Conditions for RT-PCR analysis of mouse OTR were adapted from Wagner et al. (6, 7). For all PCR studies the number of cycles used was within the linear range of amplification. The OTR sense and antisense primers were respectively the 22-bp 5′-[…]-3′ (SEQ ID NO:9) and the 23-bp 5′-[…]-3′ (SEQ ID NO:10). Amplification was performed over 32 cycles, each involving 1 min at 94° C., 1.5 min at 62° C. and 1.5 min at 72° C., and was terminated by a 5-min final extension at 72° C. The ANP antisense and sense primers were respectively the 24-bp 5′-[…]-3′ (SEQ ID NO:11) and the 20-bp 5′-[…]-3′ (SEQ ID NO:12). Amplification was performed over 25-30 cycles, each involving 1 min at 94° C., 1 min at 65° C. and 3 min at 72° C., and was terminated by a 5-min final extension at 72° C. The amplification of GAPDH mRNA, a constitutively and ubiquitously expressed gene, served as an internal standard for RT-PCR analysis. The 23-bp antisense primer 5′-[…]-3′ (SEQ ID NO:13) and the 23-bp sense primer 5′-[…]-3′ (SEQ ID NO:14) were used. Amplification was performed over 23 cycles, each involving 1 min at 94° C., 1.5 min at 59° C. and 2 min at 72° C.
Cells were collected by scraping, homogenized in sucrose buffer (20 mM Hepes/Tris, pH 7.4, containing 250 mM sucrose and 20 μg/ml of the protease inhibitor phenylmethylsulfonyl fluoride), then centrifuged at 3000 g for 10 min at 4° C. to remove debris. The supernatants were centrifuged at 100 000 g for 45 min at 4° C., and the pellets were resuspended in sucrose buffer for analysis of protein content by a modified Bradford assay (30). […]

P19 cells [1] = conditions: cited from earlier work
[2] = tested on: sarcomeric MHC and DHPR-alphal; experiment: Immunocytofluorescence of cardiac muscle markers in P19 cells; format: cell-based, mouse; conditions: for MHC and DHPR-alphal immunoreactive foci: aggregates treated day 0-4, stained day 14
Experimental: as §1

ANP mRNA = experiment: RT-PCR analysis of ANP gene transcript in P19 cultures; format: cell-based, mouse; conditions: for ANP mRNA level compared to undifferentiated cells: day 14 of differentiation
Experimental: Total cellular RNA was extracted with TRIzol® Reagent (Invitrogen Life Technologies, Burlington, Ontario, Canada), and poly(A)^+mRNA was affinity purified from 200 μg of total RNA onto Oligotex® mRNA columns (Qiagen, Mississauga, Ontario, Canada), as per the manufacturers' instructions. […] Invitrogen). First-strand cDNA (5 μl) was then used for PCR amplification with OTR, ANP or GAPDH exon-specific oligonucleotide primers in a Robocycler Gradient 40 thermocycler (Stratagene, La Jolla, Calif.). Sequences of mouse OTR and ANP genes have been described (26, 34). Conditions for RT-PCR analysis of mouse OTR were adapted from Wagner et al. (6, 7). For all PCR studies the number of cycles used was within the linear range of amplification. The OTR sense and antisense primers were respectively the 22-bp [NT] ID NO:9) and the 23-bp [NT] ID NO:10). […] The ANP antisense and sense primers were respectively the 24-bp [NT] ID NO:11) and the 20-bp [NT] ID NO:12). […] The amplification of GAPDH mRNA, a constitutively and ubiquitously expressed gene, served as an internal standard for RT-PCR analysis. The 23-bp antisense primer [NT] ID NO:13) and the 23-bp sense primer [NT] ID NO:14) were used.

P19 cells [3] = experiment: OT production by induced P19 cells (RIA); format: cell-based, mouse; conditions: day 14, 4 h in serum-free medium
Experimental: P19 cells induced with DMSO or OT were cultured until day 14 in absence of inducer. Cells were washed carefully with PBS and incubated for 4 h in serum-free α-MEM supplemented with protease inhibiors (aprotinin, 30 μg/mL and soybean trypsin inhibitor (SBTI), 100 μg/mL). Cells and media were collected, extracted on Sep-Pak C18-cartridges (Waters Canada, Mississauga, Ontario), lyophilized, resuspended in a minimal volume of α-MEM and assayed by RIA as described (8). RIA was also done on undiluted serum combination used for P19 cell culture (1 part of fetal bovine serum and 3 parts of donor bovine serum).

P19 cells [4] = experiment: Cardiac differentiation of P19 cell aggregates, scored by beating cell colonies; format: cell-based, mouse; conditions: for day by which beating cell colonies were present in all 24 independently growing cultures: aggregates treated 4 days with 10^−7 M OT or 0.5% DMSO, 24-well plate
Description: P19 cells were propagated and differentiated according to the procedures of Rudnicki and McBurney (28), with minor modifications. Undifferentiated cells were propagated in complete medium containing α-modified Eagle's minimal essential medium (α-MEM; GIBCO-BRL Burlington, Ontario, Canada) supplemented with 2.5% heat-inactivated fetal bovine serum, 7.5% heat-inactivated donor bovine serum (Cansera International, Rexdale, Ontario, Canada), and the antibiotics (GIBCO-BRL) penicillin G (50 U/ml) and streptomycin (50 μg/ml). The cultures were maintained at 37° C. in a humidified atmosphere of 5% CO2 and passaged every 2 days. The general protocol used for differentiation of P19 cells is depicted in FIG. 1.
(§2) Briefly, 0.25×10^6 cells were allowed to aggregate for 4 days in non-adhesive bacteriological grade petri dishes (6-cm diameter) containing 5 ml complete medium, in the presence of 0.5% (v/v) DMSO (Sigma Chemical Co., St. Louis, Mo.). At day 2 of aggregation, the inducing culture medium was replenished. At day 4, aggregates were transferred to tissue culture grade vessels (10-cm diameter dishes or 24/48-well plates), and cultured in complete medium in the absence of differentiation-inducing agent. Aggregation was also done in the absence of DMSO, and in the presence of 10^−7 M OT and/or 10^−7 OTA ([d(CH2)5^1,Tyr(Me)^2,Thr^4,Orn^8,Tyr-NH2^9]-vasotocin), both from Peninsula Laboratories Inc. (San Carlos, Calif.). The cell populations were analyzed at days 10-14 of the entire differentiation protocol, at a time cardiac cells normally beat synchronously.
P19 cells were subjected to the cardiac differentiation protocol depicted in Example 1, except that different concentrations of OT were used during the four days of aggregation. At day 4, aggregates were transferred to 24-well plates and scored for the appearance of beating cell colonies. In addition, cells were collected at day 14 for analysis of OTR or OT expression by RT-PCR. Cell aggregates were also treated with RA and/or T3.

P19 cells [5] = experiment: Mean diameter of P19 cell aggregates; format: cell-based, mouse; conditions: data not shown
Experimental: as §2

[6] = molecular target: oxytocin receptor (OTR) of P19 mouse embryonal carcinoma cells (mouse) (UniProt P97926); experiment: cell-based or functional assay; conditions: scale: cultures with beating colonies
P19 cells [7] = experiment: Rhodamine123 retention in P19 cultures; format: cell-based, mouse; conditions: day 10 of differentiation, p<0.001
Experimental: For morphological examination, cells were grown directly onto the plastic surface of tissue culture vessels. For staining with rhodamine^123 (Sigma), day-4 aggregates were distributed in 24-well culture plates and grown until day 8. Then, dye was added to the culture medium at a final concentration of 1 μg/ml for 45 min, and afterwards, the cells were washed extensively with phosphate-buffered saline (PBS) and cultured for 48 h in the absence of the dye. Dye retained by cells in each well was measured by a fluorescence microplate reader (SPECTRA Max Gemini®, Molecular Devices, Sunnyvale, Calif.) at 505 nm for excitation and 534 nm for emission.

oxytocin receptor (OTR) of P19 mouse embryonal carcinoma cells (mouse), sequence (P97926 whole entry): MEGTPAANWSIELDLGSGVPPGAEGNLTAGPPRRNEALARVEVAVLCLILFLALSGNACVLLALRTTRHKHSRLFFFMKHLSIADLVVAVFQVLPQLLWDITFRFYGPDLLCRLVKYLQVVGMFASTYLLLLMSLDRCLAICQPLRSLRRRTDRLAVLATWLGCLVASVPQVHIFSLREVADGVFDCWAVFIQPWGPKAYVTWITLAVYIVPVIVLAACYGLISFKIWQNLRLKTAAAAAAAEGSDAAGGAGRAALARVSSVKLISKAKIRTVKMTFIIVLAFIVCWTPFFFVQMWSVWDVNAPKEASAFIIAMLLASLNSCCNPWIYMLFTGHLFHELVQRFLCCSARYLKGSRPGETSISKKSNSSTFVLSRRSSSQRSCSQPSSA

Question: Which results are given for `C[S+](C)[O-]` [DMSO]?
Answer: OTR expression (protein and mRNA) after treatment (OTR; day 14): increased OTR expression; efficiency of cardiac differentiation (P19 cells [1]; DMSO-induced): ≤ 15%; MHC and DHPR-alphal immunoreactive foci [2]: numerous, intense, immunoreactive foci; ANP mRNA level compared to undifferentiated cells (ANP mRNA): at similar level; OT release by induced P19 cells (P19 cells [3]): release OT in their culture medium; day by which beating cell colonies were present in all 24 independently growing cultures (P19 cells [4]): 12 days; reduction of mean aggregate diameter versus untreated counterparts (P19 cells [5]): 1.5 fold

Question: Which “optimal effective concentration for cardiomyogenic differentiation of P19 cells” value (P19 cells [1]; Rodriguez et al., 1994) does the source give for `N[C@@H](Cc1cc(I)c(Oc2ccc(O)c(I)c2)c(I)c1)C(=O)O` [T3, triiodothyronine] here?
Answer: 30 nM

Question: For “[d(CH2)5^1,Tyr(Me)^2,Thr^4,Orn^8,Tyr-NH2^9]-vasotocin [OTA]”, which “effect of OTA on OT-induced OTR upregulation” value (OTR; OT 10^−7 M + OTA 10^−7 M, day 14) is on record?
Answer: inhibited OT-induced OTR upregulation

Question: And the “OTR expression (protein and mRNA) after treatment” value (OTR; day 14)?
Answer: did not upregulate OTR expression by itself

Question: And the “early OTR induction (RT-PCR)” value (OTR)?
Answer: no effect on OTR expression

Question: What about the “effect of OTA on DMSO-induced ANP expression” value (ANP mRNA; DMSO + OTA day 0-4, day 14) of the same compound?
Answer: not statistically significant

Question: What about the “effect of OTA on OT-induced ANP expression” value (ANP mRNA; OT + OTA day 0-4, day 14, p<0.05) of the same compound?
Answer: prevented OT-induced upregulation of ANP expression

Question: And the “effect of OTA on T3-induced cardiac differentiation” value (P19 cells [4]; 30 nM T3 + 10^−7 M OTA)?
Answer: abolished cardiac differentiation induced by T3; also recorded: completely inhibits P19 cell differentiation into cardiomyocytes

Question: What about the “effect of OTA on DMSO-induced cardiac differentiation (beating cell colonies)” value (P19 cells [4]; 10^−7 M OTA + 0.5% DMSO) of the same compound?
Answer: abolished the cardiogenic action of DMSO; also recorded: completely inhibits P19 cell differentiation into cardiomyocytes

Question: And the “beating cells with OTA in combination with OT” value (P19 cells [4]; 10^−7 M OTA + 10^−7 M OT)?
Answer: no beating cells were seen

Question: And the “beating cells with OTA in place of OT” value (P19 cells [4]; 10^−7 M OTA alone)?
Answer: no beating cells were seen

Question: And the “effect of OTA on RA-induced cardiac differentiation” value (P19 cells [4]; RA 10^−7 M + OTA 10^−7 M)?
Answer: completely inhibits RA-induced cardiac differentiation; also recorded: completely inhibits P19 cell differentiation into cardiomyocytes

Question: For “oxytocin (from UniProt P01178 20-28) (peptide)”, which production of beating cell colonies (P19 cardiomyocyte differentiation, 24-well plate) [6] is on record?
Answer: 24

Question: Which “OTR expression (protein and mRNA) after treatment” value (OTR; day 14) does the source give for oxytocin [OT] here?
Answer: increased OTR expression

Question: What about the “OTR mRNA expression versus OT concentration” value (OTR; differentiated populations at day 14) of the same compound?
Answer: concentration-dependent

Question: What about the “early OTR induction (RT-PCR)” value (OTR) of the same compound?
Answer: most potent OTR inducer

Question: What about the “rhodamine123 retention, OT compared with DMSO” value (P19 cells [7]) of the same compound?
Answer: significantly higher after OT than DMSO treatment

Question: And the “MHC and DHPR-alphal immunoreactive foci” value [2]?
Answer: numerous, intense, immunoreactive foci

Question: What about the “6-day versus 4-day OT treatment of aggregates (myocyte immunological markers)” value ([2]; not presented) of the same compound?
Answer: no difference with the 4-day treatment

Question: What about the “ANP mRNA level compared to undifferentiated cells” value (ANP mRNA) of the same compound?
Answer: significantly upregulated

Question: What about the “OT release by induced P19 cells” value (P19 cells [3]) of the same compound?
Answer: release OT in their culture medium

Question: What about the “OT concentration range over which differentiation into beating cardiomyocytes is concentration-dependent” value (P19 cells [4]; 4 days of aggregation with different OT concentrations) of the same compound?
Answer: 10^−6 to 10^−9 M

Question: And the “formation of rhythmically-beating cells” value (P19 cells [4]; P19 cell aggregates treated day 0-4 with 10^−7 M OT)?
Answer: induced the formation of rhythmically-beating cells

Question: What about the “day by which beating cell colonies were present in all 24 independently growing cultures” value (P19 cells [4]) of the same compound?
Answer: 8 days

Question: And the “cardiac differentiation at the OT concentration supplied by serum in culture medium” value (P19 cells [4]; final OT concentration of 10^−12 M)?
Answer: not sufficient to induce cardiac differentiation

Question: What about the “reduction of mean aggregate diameter versus untreated counterparts” value (P19 cells [5]) of the same compound?
Answer: 1.5 fold
